Data from patent US9963445B2, “Chemical compounds” (SYNGENTA PARTICIPATIONS AG, priority 2013, dated 2018).

Experiments:
Assay type in all cases: in vivo
Alopecurus myosuroides [1] = test: Pre-emergence herbicidal activity, glasshouse pot test; conditions: pre-emergence spray, rate 1000 g/ha, evaluated after 13 days, scale 0-5
Description: (§1) Seeds of a variety of test species were sown in standard soil in pots. After cultivation for one day (pre-emergence) under controlled conditions in a glasshouse (at 24/16° C., day/night; 14 hours light; 65% humidity), the plants were sprayed with an aqueous spray solution derived from the formulation of the technical active ingredient in acetone/water (50:50) solution containing 0.5% Tween 20 (polyoxyethelyene sorbitan monolaurate, CAS RN 9005-64-5). The test plants were then grown in a glasshouse under controlled conditions (at 24/16° C., day/night; 14 hours light; 65% humidity) and watered twice daily. After 13 days, the test was evaluated (5=total damage to plant; 0=no damage to plant).
(§2) ABUTH=Abutilon theophrasti; SOLNI=Solanum nigrum; AMARE=Amaranthus retroflexus; SETFA=Setaria faberi; ALOMY=Alopecurus myosuroides; ECHCG=Echinochloa crus-galli, ZEAMX=zea mays.

Setaria faberi [2] = test: as above; conditions: pre-emergence spray, rate 1000 g/ha, evaluated after 13 days, scale 0-5
Description: as §1, §2

Amaranthus retroflexus [3] = test: as above; conditions: pre-emergence spray, rate 1000 g/ha, evaluated after 13 days, scale 0-5
Description: as §1, §2

Echinochloa crus-galli [4] = test: as above; conditions: pre-emergence spray, rate 1000 g/ha, evaluated after 13 days, scale 0-5
Description: as §1, §2

Abutilon theophrasti [5] = test: as above; conditions: pre-emergence spray, rate 1000 g/ha, evaluated after 13 days, scale 0-5
Description: as §1, §2

zea mays [6] = test: as above; conditions: pre-emergence spray, rate 1000 g/ha, evaluated after 13 days, scale 0-5
Description: as §1, §2

Alopecurus myosuroides [7] = test: Post-emergence herbicidal activity, glasshouse pot test; parameters: key: 0 = no damage to plant, 5 = total damage to plant; conditions: Application post-emergence, rate 1000 g/ha, evaluated after 13 days
Description: (§3) Seeds of a variety of test species were sown in standard soil in pots. After 8 days cultivation (post-emergence) under controlled conditions in a glasshouse (at 24/16° C., day/night; 14 hours light; 65% humidity), the plants were sprayed with an aqueous spray solution derived from the formulation of the technical active ingredient in acetone/water (50:50) solution containing 0.5% Tween 20 (polyoxyethelyene sorbitan monolaurate, CAS RN 9005-64-5). The test plants were then grown in a glasshouse under controlled conditions (at 24/16° C., day/night; 14 hours light; 65% humidity) and watered twice daily. After 13 days, the test was evaluated (5=total damage to plant; 0=no damage to plant).
as §2

Amaranthus retroflexus [8] = test: as above; parameters: key: 0 = no damage to plant, 5 = total damage to plant; conditions: Application post-emergence, rate 1000 g/ha, evaluated after 13 days
Description: as §3, §2

Abutilon theophrasti [9] = test: as above; parameters: key: 0 = no damage to plant, 5 = total damage to plant; conditions: Application post-emergence, rate 1000 g/ha, evaluated after 13 days
Description: as §3, §2

zea mays [10] = test: as above; parameters: key: 0 = no damage to plant, 5 = total damage to plant; conditions: Application post-emergence, rate 1000 g/ha, evaluated after 13 days
Description: as §3, §2

Setaria faberi [11] = test: as above; parameters: key: 0 = no damage to plant, 5 = total damage to plant; conditions: Application post-emergence, rate 1000 g/ha, evaluated after 13 days
Description: as §3, §2

Echinochloa crus-galli [12] = test: as above; parameters: key: 0 = no damage to plant, 5 = total damage to plant; conditions: Application post-emergence, rate 1000 g/ha, evaluated after 13 days
Description: as §3, §2

Compound | ALOMY damage score, application pre-emergence (Alopecurus myosuroides [1]) | SETFA damage score, application pre-emergence (Setaria faberi [2]) | AMARE damage score, application pre-emergence (Amaranthus retroflexus [3]) | ECHCG damage score, application pre-emergence (Echinochloa crus-galli [4]) | ABUTH damage score, application pre-emergence (Abutilon theophrasti [5]) | ZEAMX damage score, application pre-emergence (zea mays [6]) | ALOMY herbicidal damage score (Alopecurus myosuroides [7]) | AMARE herbicidal damage score (Amaranthus retroflexus [8]) | ABUTH herbicidal damage score (Abutilon theophrasti [9]) | ZEAMX herbicidal damage score (zea mays [10]) | SETFA herbicidal damage score (Setaria faberi [11]) | ECHCG herbicidal damage score (Echinochloa crus-galli [12])
COC1=C(C)C(O)N(c2cc(C(C)(C)C)c(Cl)nn2)C1=O (stereo not shown) [BI32] | 4 | 5 | 3 | 5 | 4 | 4 | 5 | 5 | 5 | 4 | – | –
1-(6-chloropyrimidin-4-yl)-2-hydroxy-4-methoxy-3-methyl-2H-pyrrol-5-one [CI2] | 2 | 4 | – | 4 | 1 | 1 | – | – | – | – | – | –
COC1=C(C)C(O)N(c2cc(C)c(C(=O)NC(C)(C)C)cn2)C1=O (stereo not shown) [AI33] | 4 | 5 | 5 | 4 | – | – | 5 | 5 | 5 | 4 | 5 | 5
COC1=C(C)C(O)N(c2cc(C(C)C)c(C(=O)NC(C)(C)C)cn2)C1=O (stereo not shown) [AI30] | – | – | 5 | – | 5 | – | – | 5 | 5 | – | 5 | 5
COC1=C(C)C(O)N(c2cc(NC(C)C)ncn2)C1=O (stereo not shown) [CI4, N2-hydroxy-1-[6-(isopropylamino)pyrimidin-4-yl]-4-methoxy-3-methyl-2H-pyrrol-5-one] | 0 | 0 | 0 | 0 | 0 | 0 | – | – | – | – | – | –
COC1=C(C)C(O)N(c2cc(Cl)c(C(=O)NC(C)(C)C)cn2)C1=O (stereo not shown) [AI18] | 4 | 5 | 5 | 5 | – | – | 5 | 5 | 5 | 4 | 5 | 5
COC1=C(C)C(O)N(c2cc(C(C)(C)C)ncn2)C1=O (stereo not shown) [CI1] | 4 | 5 | 5 | 4 | 5 | 4 | – | – | – | – | – | –
COC1=C(C)C(O)N(c2cc(C(C)(C)C#N)ncn2)C1=O (stereo not shown) [CI6] | 3 | 5 | 5 | 5 | 5 | 3 | – | – | – | – | – | –
CC1=C(Cl)C(=O)N(c2cc(C(C)C)c(Cl)nn2)C1O (stereo not shown) [BF15] | 4 | 5 | 3 | 5 | 4 | 2 | 5 | 5 | 5 | 3 | – | –
COC1=C(C)C(O)N(c2cc(N(C)C)ncn2)C1=O (stereo not shown) [CI9] | 1 | 1 | 3 | 1 | 2 | 0 | – | – | – | – | – | –
CC1=C(Cl)C(=O)N(c2cc(C(F)(F)F)c(-c3ccc(Cl)cc3)cn2)C1O (stereo not shown) [AF90] | – | 3 | 2 | 0 | 0 | 0 | – | 5 | 4 | – | 5 | –
COC(=O)c1cnc(N2C(=O)C(OC)=C(C)C2O)cc1Cl (stereo not shown) [AI21] | 0 | 0 | 5 | 0 | – | – | 1 | 5 | 5 | 1 | 4 | 3
COC1=C(C)C(O)N(c2cc(C(C)(C)F)ncn2)C1=O (stereo not shown) [CI7] | 3 | 5 | 5 | 4 | 5 | 1 | – | – | – | – | – | –
COC1=C(C)C(O)N(c2cc(C(C)(F)F)ncn2)C1=O (stereo not shown) [CI8] | 3 | 5 | 5 | 4 | 5 | 2 | – | – | – | – | – | –
COC1=C(C)C(O)N(c2cc(C(C)C)c(Cl)nn2)C1=O (stereo not shown) [BI28] | 4 | 5 | 4 | 5 | 4 | 3 | 5 | 5 | 5 | 3 | – | –
